Reference: patent US8404691B2, “Imidazothiazole derivatives having proline ring structure” (Daiichi Sankyo Company, Limited, priority 2009, dated 2013)

Assays:
[1] = system: human lung cancer-derived cell line NCI-H460 having wild-type p53; experiment: Cell growth inhibition assay (MTT); format: cell-based; settings: 72 h, NCI-H460 cells, culturing 3 days, read-out: anti-cellular effect GI50 (50% growth inhibition concentration)
Experimental: A cell growth inhibition assay was conducted using human lung cancer-derived cell line NCI-H460 having wild-type p53.
NCI-H460 cells were suspended in a medium (RPMI1640 medium containing 10% fetal bovine serum) and the suspension was inoculated in an amount of 500 cells/150 μL/well to a 96-well multiwell plate. A test compound was dissolved in DMSO and this solution was diluted with medium to prepare a sample solution (DMSO concentration: 1% or lower). On the next day of inoculation, medium nonsupplemented with the test compound or the sample solution was added in an amount of 50 μL/well. The MTT assay was conducted immediately after the medium was added in an amount of 50 μL on the next day of cell inoculation, and after the sample solution or the medium was added to cells followed by culturing at 37° C. for 3 days in a 5% CO2 atmosphere. The MTT assay was conducted as shown below.
A 5 mg/mL MTT (3-(4,5-dimethylthiazol-2-yl)-2,5-diphenyltetrazolium bromide, Sigma-Aldrich Co., M-2128) solution was prepared using a phosphate buffer solution (Dulbecco's Phosphate-buffered Saline). This MTT solution was added in an amount of 20 μL/well. Then, the plate was cultured at 37° C. for 4 hours in a 5% CO2 atmosphere. The plate was centrifuged at 1200 rpm for 5 minutes and then the culture supernatant was removed by aspiration using a dispenser. DMSO was added in an amount of 150 μL/well to dissolve generated formazan. The plate was stirred using a plate mixer for uniform color development from each well. The absorbance of each well was measured under conditions of OD 540 nm and reference 660 nm using a plate reader (SpectraMax PLUS384, Molecular Devices, CA, USA).
The OD value measured on the day of adding the sample solution was defined as S. The OD value measured three days after addition of the sample solution was defined as T. The OD value measured three days after addition of the DMSO dilution was defined as C. T/C (%) was determined at each concentration according to the calculation formula shown below to prepare a dose response curve, from which 50% growth inhibition concentration (GI50 value) was calculated. T/C(%)=(T−S)/(C−S)×100

[2] = Metabolic stability test (microsomal metabolism); format: in vitro ADME; settings: human liver microsomes, 37° C., 30 minutes after addition of NADP+; also: tested at 1.1 µM
Experimental: 100 μL of 100 mM phosphate buffer solution (pH 7.4) containing 3 μM test compound was added to 100 μL of reaction solution containing 100 mM phosphate buffer solution (pH 7.4), 30 mM glucose 6-phosphate, 10 mM MgCl2.6H2O, 3 units/mL glucose 6-phosphate 1-dehydrogenase, and 0.3 to 1.5 mgP/mL human liver microsomes and the mixture was incubated at 37° C. for 20 minutes. Then, 70 μL of 100 mM phosphate buffer solution (pH 7.4) containing 3 mM NADP+ was added and the mixture was further incubated at 37° C. for 30 minutes to conduct a microsomal metabolism test. The compound was quantified by the internal standard method using a quadrupole mass spectrometer connected to a high performance liquid chromatography apparatus. The metabolic stability (residual percentage of compound: MS %) was determined according to the following formula: MS(human)(%)=(peak area ratio of test compound after addition of NADP+ and incubation for 30 minutes)/(peak area ratio of test compound before addition of NADP+)×100.
(peak area ratio: peak area of test compound divided by that of internal standard substance)

Mdm2/p53 binding = biological target: T1, Mdm2/p53 binding (Homo sapiens, UniProt Q00987, L33E); experiment: Mdm2/p53 binding assay (HTRF, His-p53 and GST-Mdm2); settings: His-p53 (aa 1-132) and GST-Mdm2 (aa 25-108, L33E), 6.25 nM each, 25° C. for 1 hour
T1 construct: Mdm2 amino acids at positions 25 to 108
Experimental: Next, a test compound was diluted with DMSO to produce protein buffer solution containing 10% dilution, and this buffer solution was added in an amount of 4 μL/well to the plate.
These dilutions were added in an amount of 8 μL/well (total reaction solution volume: 20 μl/well). Then, the plate was left at 25° C. for 1 hour.
The R value calculated from the well supplemented with His-p53, GST-Mdm2, the test compound, and each antibody was defined as R (sample). The R value calculated from the well supplemented with His-p53, GST-Mdm2, and each antibody but without the test compound was defined as R (control). The R value calculated from the well supplemented with GST-Mdm2, the test compound, and each antibody but without His-p53 was defined as R (background). T/C was calculated from the formula shown below. An IC50 value for Mdm2/p53 binding was calculated by sigmoid fitting. T/C=(R(sample)−R(background))/(R(control)−R(background))

T1 sequence (Q00987 25-108 L33E): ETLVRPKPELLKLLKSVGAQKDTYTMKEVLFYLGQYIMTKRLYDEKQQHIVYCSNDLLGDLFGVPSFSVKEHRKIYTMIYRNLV

SMILES | GI50 [1] | MS (human) % (metabolic stability, residual percentage of compound) [2] | IC50 (Mdm2/p53 binding)
CC(C)C1=C(C(=O)N2C[C@H](F)C[C@H]2C(=O)N2CCNC3(CC3)C2)SC2=N[C@@](C)(c3ccc(Cl)nc3)[C@@H](c3ccc(Cl)c(F)c3)N21 [Example 1, 7-[(4R)-1-{[(5R,6S)-5-(4-chloro-3-fluorophenyl)-6-(6-chloropyridin-3-yl)-3-isopropyl-6-methyl-5,6-dihydroimidazo[2,1-b][1,3]thiazol-2-yl]carbonyl}-4-fluoro-L-prolyl]-4,7-diazaspiro[2.5]octane] | < 400 nM | 77% | 2.8 nM
CC(C)C1=C(C(=O)N2C[C@H](F)C[C@H]2C(=O)N2CC3(CC3)NC[C@@H]2C)SC2=N[C@@](C)(c3ccc(Cl)nc3)[C@@H](c3ccc(Cl)c(F)c3)N21 [Example 2, (6S)-7-[(4R)-1-{[(5R,6S)-5-(4-chloro-3-fluorophenyl)-6-(6-chloropyridin-3-yl)-3-isopropyl-6-methyl-5,6-dihydroimidazo[2,1-b][1,3]thiazol-2-yl]carbonyl}-4-fluoro-L-prolyl]-6-methyl-4,7-diazaspiro[2.5]octane] |  | 100% | 
CC(C)C1=C(C(=O)N2C[C@H](F)C[C@H]2C(=O)N2CC3(CC3)NC[C@H]2C)SC2=N[C@@](C)(c3ccc(Cl)nc3)[C@@H](c3ccc(Cl)c(F)c3)N21 [Example 3, (6R)-7-[(4R)-1-{[(5R,6S)-5-(4-chloro-3-fluorophenyl)-6-(6-chloropyridin-3-yl)-3-isopropyl-6-methyl-5,6-dihydroimidazo[2,1-b][1,3]thiazol-2-yl]carbonyl}-4-fluoro-L-prolyl]-6-methyl-4,7-diazaspiro[2.5]octane] |  | 68% | 
CC[C@H]1CNC2(CC2)CN1C(=O)[C@@H]1C[C@@H](F)CN1C(=O)C1=C(C(C)C)N2C(=N[C@@](C)(c3ccc(Cl)nc3)[C@H]2c2ccc(Cl)c(F)c2)S1 [Example 4, (6S)-7-[(4R)-1-{[(5R,6S)-5-(4-chloro-3-fluorophenyl)-6-(6-chloropyridin-3-yl)-3-isopropyl-6-methyl-5,6-dihydroimidazo[2,1-b][1,3]thiazol-2-yl]carbonyl}-4-fluoro-L-prolyl]-6-ethyl-4,7-diazaspiro[2.5]octane] |  | 100% | 
CC[C@@H]1CN(C(=O)C(F)(F)F)C2(CC2)CN1C(=O)[C@@H]1C[C@@H](F)CN1C(=O)C1=C(C(C)C)N2C(=N[C@@](C)(c3ccc(Cl)nc3)[C@H]2c2ccc(Cl)c(F)c2)S1 [Example 5, (6R)-7-[(4R)-1-{[(5R,6S)-5-(4-chloro-3-fluorophenyl)-6-(6-chloropyridin-3-yl)-3-isopropyl-6-methyl-5,6-dihydroimidazo[2,1-b][1,3]thiazol-2-yl]carbonyl}-4-fluoro-L-prolyl]-6-ethyl-4-(trifluoroacetyl)-4,7-diazaspiro[2.5]octane] | < 400 nM |  | 5.3 nM
CC[C@@H]1CNC2(CC2)CN1C(=O)[C@@H]1C[C@@H](F)CN1C(=O)C1=C(C(C)C)N2C(=N[C@@](C)(c3ccc(Cl)nc3)[C@H]2c2ccc(Cl)c(F)c2)S1 [Example 6, (6R)-7-[(4R)-1-{[(5R,6S)-5-(4-chloro-3-fluorophenyl)-6-(6-chloropyridin-3-yl)-3-isopropyl-6-methyl-5,6-dihydroimidazo[2,1-b][1,3]thiazol-2-yl]carbonyl}-4-fluoro-L-prolyl]-6-ethyl-4,7-diazaspiro[2.5]octane] |  | 69% | 
CC(C)C[C@@H]1CNC2(CC2)CN1C(=O)[C@@H]1C[C@@H](F)CN1C(=O)C1=C(C(C)C)N2C(=N[C@@](C)(c3ccc(Cl)nc3)[C@H]2c2ccc(Cl)c(F)c2)S1 [Example 7, (6R)-7-[(4R)-1-{[(5R,6S)-5-(4-chloro-3-fluorophenyl)-6-(6-chloropyridin-3-yl)-3-isopropyl-6-methyl-5,6-dihydroimidazo[2,1-b][1,3]thiazol-2-yl]carbonyl}-4-fluoro-L-prolyl]-6-isobutyl-4,7-diazaspiro[2.5]octane] | 400 to 2500 nM | 100% | 3.6 nM
CC(C)C1=C(C(=O)N2C[C@H](F)C[C@H]2C(=O)N2CC3(CC3)NCC23CC3)SC2=N[C@@](C)(c3ccc(Cl)nc3)[C@@H](c3ccc(Cl)c(F)c3)N21 [Example 8, 4-[(4R)-1-{[(5R,6S)-5-(4-chloro-3-fluorophenyl)-6-(6-chloropyridin-3-yl)-3-isopropyl-6-methyl-5,6-dihydroimidazo[2,1-b][1,3]thiazol-2-yl]carbonyl}-4-fluoro-L-prolyl]-4,9-diazaspiro[2.2.2.2]decane] | < 400 nM | 95% | 2.2 nM
CC(C)C1=C(C(=O)N2CC(F)(F)C[C@H]2C(=O)N2CC3(CC3)NC[C@@H]2C)SC2=N[C@@](C)(c3ccc(Cl)nc3)[C@@H](c3ccc(Cl)c(F)c3)N21 [Example 9, (6S)-7-(1-{[(5R,6S)-5-(4-chloro-3-fluorophenyl)-6-(6-chloropyridin-3-yl)-3-isopropyl-6-methyl-5,6-dihydroimidazo[2,1-b][1,3]thiazol-2-yl]carbonyl}-4,4-difluoro-L-prolyl)-6-methyl-4,7-diazaspiro[2.5]octane] | < 400 nM | 80% | 4.1 nM
CC(C)C1=C(C(=O)N2CC(F)(F)C[C@H]2C(=O)N2CC3(CC3)NC[C@H]2C)SC2=N[C@@](C)(c3ccc(Cl)nc3)[C@@H](c3ccc(Cl)c(F)c3)N21 [Example 10, (6R)-7-(1-{[(5R,6S)-5-(4-chloro-3-fluorophenyl)-6-(6-chloropyridin-3-yl)-3-isopropyl-6-methyl-5,6-dihydroimidazo[2,1-b][1,3]thiazol-2-yl]carbonyl}-4,4-difluoro-L-prolyl)-6-methyl-4,7-diazaspiro[2.5]octane] | < 400 nM | 48% | 14 nM
CC(C)C1=C(C(=O)N2C[C@H](F)C[C@H]2C(=O)N2CC3(CC3)NC[C@@H]2CO)SC2=N[C@@](C)(c3ccc(Cl)nc3)[C@@H](c3ccc(Cl)c(F)c3)N21 [Example 11, {(6R)-7-[(4R)-1-{[(5R,6S)-5-(4-chloro-3-fluorophenyl)-6-(6-chloropyridin-3-yl)-3-isopropyl-6-methyl-5,6-dihydroimidazo[2,1-b][1,3]thiazol-2-yl]carbonyl}-4-fluoro-L-prolyl]-4,7-diazaspiro[2.5]oct-6-yl}methanol] | 400 to 2500 nM | 100% | 3.2 nM
CC(C)C1=C(C(=O)N2C[C@H](F)C[C@H]2C(=O)N2CC3(CC3)NC[C@@H]2C)SC2=N[C@@](C)(c3ccc(Cl)cc3)[C@@H](c3ccc(Cl)c(F)c3)N21 [Example 24] | < 400 nM | 89% | 
CC(C)C1=C(C(=O)N2C[C@H](F)C[C@H]2C(=O)N2CC3(CC3)NC[C@H]2C)SC2=N[C@@](C)(c3ccc(Cl)cc3)[C@@H](c3ccc(Cl)c(F)c3)N21 [Example 25] | < 400 nM | 47% | 
